Measured values taken from patent publication US12638438B2, “Screening methods using canine T2R receptors and pet food products and compositions identified using the same” (MARS, INCORPORATED, priority 2015, dated 2026).

Legend:
canine T2R5 = molecular target: T1, canine T2R5 (Canis lupus, UniProt Q2ABD6); assay: Canine T2R5 activation, intracellular calcium assay in transiently transfected HEK293 cells, dose response (FIG. 7E); format: cell-based
T1 sequence (Q2ABD6 1-295): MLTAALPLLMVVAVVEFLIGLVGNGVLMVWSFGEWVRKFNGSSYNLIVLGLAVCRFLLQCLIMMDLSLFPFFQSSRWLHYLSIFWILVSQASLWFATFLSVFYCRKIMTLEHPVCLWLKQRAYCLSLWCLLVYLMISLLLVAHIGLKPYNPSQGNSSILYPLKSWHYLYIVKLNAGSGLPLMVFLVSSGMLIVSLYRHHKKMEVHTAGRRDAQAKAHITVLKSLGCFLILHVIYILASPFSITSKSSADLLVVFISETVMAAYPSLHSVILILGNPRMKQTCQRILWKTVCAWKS
Source text: There is a potential hydrogen bond between Ser89 and each nitrogen of 1, 10 Phenanthroline. Additional residues that can potentially make van der Waals or Pi interactions with the ligand include Pro264, Leu58, Val88, Gln90, Ile86, Leu173, Trp165, Thr258, Ala261, Tyr234, Glu257, Met260, and Trp85.
(§1) No wash step was required for the luminescent protocol.

canine T2R10 = molecular target: T2, canine T2R10 (Canis lupus, UniProt Q2ABD4); assay: Canine T2R10 activation, intracellular calcium assay in transiently transfected HEK293 cells, dose response (FIG. 8E); format: cell-based; conditions: agonist; HEK293 transient, cT2R10 (SEQ ID NO:23); calcium fluorescence or luminescence, FLIPR Tetra; at least 8 concentrations in triplicate
T2 sequence (Q2ABD4 1-322): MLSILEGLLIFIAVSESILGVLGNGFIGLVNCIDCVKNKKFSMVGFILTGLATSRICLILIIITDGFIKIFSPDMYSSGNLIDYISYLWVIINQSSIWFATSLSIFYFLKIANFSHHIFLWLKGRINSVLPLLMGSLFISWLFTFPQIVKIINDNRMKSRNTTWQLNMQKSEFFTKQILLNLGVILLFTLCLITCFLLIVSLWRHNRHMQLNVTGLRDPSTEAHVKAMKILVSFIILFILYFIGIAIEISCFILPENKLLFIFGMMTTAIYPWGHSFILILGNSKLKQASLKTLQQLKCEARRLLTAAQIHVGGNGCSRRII
Source text: Lys258 and Leu180 (backbone) can potentially make hydrogen bonds with the ligand.
as §1

canine T2R2 = molecular target: T3, canine T2R2 (Canis lupus, UniProt Q2ABD9); assay: Canine T2R2 activation, intracellular calcium assay in transiently transfected HEK293 cells, dose response (FIG. 4E); format: cell-based; conditions: agonist; HEK293 transient, cT2R2 (SEQ ID NO:18); calcium fluorescence or luminescence, FLIPR Tetra; at least 8 concentrations in triplicate
T3 sequence (Q2ABD9 1-303): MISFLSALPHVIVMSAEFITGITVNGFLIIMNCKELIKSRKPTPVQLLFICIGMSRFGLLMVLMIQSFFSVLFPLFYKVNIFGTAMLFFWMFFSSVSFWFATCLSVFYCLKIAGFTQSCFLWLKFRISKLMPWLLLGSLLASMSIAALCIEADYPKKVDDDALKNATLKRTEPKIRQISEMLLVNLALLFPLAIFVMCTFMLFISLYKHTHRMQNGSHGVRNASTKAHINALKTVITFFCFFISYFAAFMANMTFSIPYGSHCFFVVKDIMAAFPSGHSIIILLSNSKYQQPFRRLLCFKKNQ
Source text: Residues that can potentially make hydrogen bond or salt bridge interactions with the ligand include Ser94, Trp90, Lys268, Tyr245, and Glu180.
as §1

canine T2R43 = canine T2R43 (Canis lupus, UniProt A0A8I3S925); assay: cell-based
Sequence of canine T2R43 (A0A8I3S925 1-349): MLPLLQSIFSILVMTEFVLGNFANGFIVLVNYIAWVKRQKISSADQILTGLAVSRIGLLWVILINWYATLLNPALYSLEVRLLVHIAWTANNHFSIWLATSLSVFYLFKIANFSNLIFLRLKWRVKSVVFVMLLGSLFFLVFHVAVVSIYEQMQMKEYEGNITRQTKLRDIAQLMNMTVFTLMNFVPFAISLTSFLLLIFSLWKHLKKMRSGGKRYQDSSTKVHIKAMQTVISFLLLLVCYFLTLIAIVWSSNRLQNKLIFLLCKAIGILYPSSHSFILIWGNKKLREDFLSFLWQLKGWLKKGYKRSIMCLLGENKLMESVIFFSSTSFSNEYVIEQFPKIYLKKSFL
Protocol: In vitro functional characterization of the selected modulators was used to evaluate the effectiveness of the putative modulator compounds in modulating the activation of the bitter taste receptors.
HEK293 cells that transiently expressed a canine bitter taste receptor selected from canine T2R1, T2R2, T2R3, T2R4, T2R5, T2R10, and T2R43, were exposed to compounds to determine whether the compounds modulated the activity of the bitter taste receptors.
All transient transfections were performed with Lipofectamine2000 (Invitrogen) according to the manufactures protocol. 10 μl Lipofectamine2000 were diluted in 500 μl DMEM (Life Technologies) and incubated for 5 minutes at room temperature. […] At 27 to 30 hours post-transfection the medium was removed from the cells and 20 μl loading buffer that included a calcium sensitive fluorescent dye or luminescent substrate (Tyrode's buffer+2 μM Fluo4-AM (Invitrogen)+2.5 mM probenecid (Invitrogen) for fluorescence or Coelenterazine (Biosynth)+Tyrode's buffer for luminescence) were added for 1 hour (fluorescence) or 3 hours (luminescence) at 37° C. […]
Activation of the bitter taste receptor was determined by detecting a change in intracellular calcium levels as measured by fluorescence or luminescence of the calcium sensitive fluorescent dye or luminescent photoprotein. […] A FLIPR® Tetra system was used to measure fluorescence or luminescence. […]

canine T2R3 = molecular target: T4, canine T2R3 (Canis lupus, UniProt Q2ABD8); assay: Canine T2R3 activation, intracellular calcium assay in transiently transfected HEK293 cells, dose response (FIG. 5E); format: cell-based; conditions: agonist; HEK293 transient, cT2R3 (SEQ ID NO:19); calcium fluorescence or luminescence, FLIPR Tetra; at least 8 concentrations in triplicate
T4 sequence (Q2ABD8 1-316): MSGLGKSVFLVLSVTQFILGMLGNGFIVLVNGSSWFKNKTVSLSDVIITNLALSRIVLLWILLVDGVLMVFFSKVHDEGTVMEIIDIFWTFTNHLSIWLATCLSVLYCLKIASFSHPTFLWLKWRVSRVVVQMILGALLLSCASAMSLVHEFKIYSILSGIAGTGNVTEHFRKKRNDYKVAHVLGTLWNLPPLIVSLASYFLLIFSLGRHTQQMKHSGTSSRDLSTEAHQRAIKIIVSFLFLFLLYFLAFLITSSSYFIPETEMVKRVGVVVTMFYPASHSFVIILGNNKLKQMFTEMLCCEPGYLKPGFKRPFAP
Source text: Residues that can make hydrogen bonding or charged interactions with the ligand include Asn93 and Asp86. […] Additional residues making primarily van der Waals interactions with the ligand include Phe250, Gly185, Phe243, Thr90, Asn176, Val149, Ile154, Lys174, Met82, Ile85, Lys173, and Met69.
as §1

canine T2R1 = molecular target: T5, canine T2R1 (Canis lupus, UniProt Q2ABE0); assay: Canine T2R1 activation, intracellular calcium assay in transiently transfected HEK293 cells, dose response (FIG. 3E); format: cell-based
T5 sequence (Q2ABE0 1-297): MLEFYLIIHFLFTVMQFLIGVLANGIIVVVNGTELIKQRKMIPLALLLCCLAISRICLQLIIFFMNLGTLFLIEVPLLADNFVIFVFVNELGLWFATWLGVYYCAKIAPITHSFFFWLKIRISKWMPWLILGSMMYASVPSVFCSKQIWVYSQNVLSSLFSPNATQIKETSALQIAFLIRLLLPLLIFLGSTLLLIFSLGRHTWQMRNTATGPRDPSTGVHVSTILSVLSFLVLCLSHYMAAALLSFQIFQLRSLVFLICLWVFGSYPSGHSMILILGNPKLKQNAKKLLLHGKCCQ
Source text: FIGS. 2A-2C show canine T2R sequence alignments. The dashed grey arrows indicate active site positions occupied by mostly asparagine or serine residues. The solid black arrows indicate structural tryptophan residues that are present in all human and cat bitter receptors as well as all canine bitter receptors except T2R12. The dashed black arrows indicate the conserved asparagine which is present in most of the bitter receptors. The conjoined solid arrows indicate the conserved LxxxR motif (IxxxR for some instances in T2R2), wherein x can be any amino acid. […] Asn89 can potentially make a hydrogen bond interaction with the ligand. Other residues that can potentially make hydrogen bonding interactions, pi interactions, or charged interactions with the ligand include Tyr239.
as §1

`c1cnc2c(c1)ccc1cccnc12` [1, 10 Phenanthroline, 1,10-phenanthroline] gave an EC50 (canine T2R5) of 564 ± 114 µM.

`CC(=O)OC(C)(C)/C=C/C(=O)[C@](C)(O)[C@H]1[C@H](O)C[C@@]2(C)[C@@H]3CC=C4[C@@H](C[C@H](O)C(=O)C4(C)C)[C@]3(C)C(=O)C[C@]12C` [Cucurbitacin B] was tested, and the EC50 (canine T2R10) was 0.3 ± 0.034 µM.

With `CC1COc2c(N3CCN(C)CC3)c(F)cc3c(=O)c(C(=O)O)cn1c23` (stereo not drawn) [Ofloxacin] the EC50 (canine T2R2) was 232 ± 14 µM.

`CCCc1cc(=O)[nH]c(=S)[nH]1` [Propylthiouracil] was tested, and the EC50 (canine T2R43) was 126 ± 23 µM.

With `CCN(CC)CCCC(C)Nc1ccnc2cc(Cl)ccc12` (stereo not drawn) [Chloroquine] the EC50 (canine T2R3) was 81 ± 11 µM.

`CC(C)[C@@H]1CC[C@@H](C)C[C@H]1O` [Menthol] gave an EC50 (canine T2R1) of 1080 ± 216 µM.
